# Measurements: patent US20250282819A1, “MITOCHONDRIA-[…] PEPTIDE THAT CAN BE […] DELIVERED AT NANOMOLAR CONCENTRATION, AND USE THEREOF” (CAMP THERAPEUTICS INC., priority 2021, published 2025)
# “Also recorded” adds a separate entry of the source. Where a SMILES comes first, the peptide text is derived from it.
# Legend:
# [1] = Oligomerization tendency by HPLC retention time at 40 and 5° C.; assay type: physicochemical; conditions: 10 μl of 0.2 mM peptide
# Method: Specifically, 10 μl of each peptide solution at 0.2 mM was injected into HPLC, and the time at which the peptide was detected (RT) was measured at 40° C. and 5° C., respectively. Here, the stationary phase and mobile phase conditions of the HPLC were set using well-known methods. In general, the better the oligomer is formed, the detection time becomes longer at 40° C., which is a relatively higher temperature, thereby resulting in larger ΔΔRT that is a difference from the value measured at 5° C.
# HeLa cells [2] = experiment: Mitochondria-targeting ability by mitochondrial fractionation; assay type: cell-based; conditions: EC50 concentration
# Method: To determine at what rate the dimeric bundle peptides according to the present disclosure target mitochondria, mitochondrial fractionation was performed according to the method described in Experimental Example 4. […] Then, the cells were harvested and fractionation was performed.
# Cell-penetrating ability was performed according to the method described in Experimental Example 3, and mitochondria-targeting ability was assessed by mitochondrial fractionation according to the method described in Experimental Example 4. In addition to SS-31 as a conventional peptide, a mitochondrial-penetrating peptide of Kelly's group (MPP1a; see Horton, Kristin L et al. “Mitochondria-penetrating peptides.” Chemistry & biology vol. 15, 4 (2008): 375-82) was used as an additional comparison group. The amino acid sequence of MPP1a is as follows: X(dR)XKX(dR)XK (where X is cyclohexylalanine, dR is D-arginine, and K is lysine).
# Intracellular distribution of peptides was detected using the mitochondria isolation method. […] The cells were harvested, washed with cold PBS, and suspended in cold IB (30 mM Tris-HCl, pH 7.4; 225 mM mannitol; 75 mM sucrose; and 0.1 mM EGTA). […] Lysed cells were monitored under a light microscope. […] The fluorescence intensity of each fraction was measured by using a microplate reader [TECAN, Switzerland; excitation (Ex)/emission (Em)=510/570 nm].
# HeLa cells [3] = experiment: Preferential binding to CCCP-damaged mitochondria, confocal microscopy; assay type: cell-based; conditions: 100 nM 3 hours, 20 μM CCCP
# Method: To damage mitochondria, treatment with carbonyl cyanide m-chlorophenyl hydrazone (CCCP) at a concentration of 20 μM was performed for 30 minutes.
# For microscopic observation, HeLa cells were cultured in glass-bottom dishes (SPL, 200350, Korea). The cells were then treated with peptides for 3 hours and stained with MitoTracker™ (Thermo Fisher Scientific, A1372, USA; 100 nM, 1 hr), nonyl acridine orange (NAO; Thermo Fisher Scientific, A1372; 100 nM, 1 hr), Hoechst 33342 (1 g/mL, 20 min), CellLight™ early endosomes-GFP (Thermo Fisher Scientific, C10586; 2 L/10,000 cells, 16 hr), and/or LysoTracker™ (Thermo Fisher Scientific, L7525; 50 nM, 30 min). The cells were then rinsed with PBS and HBSS was added thereto. Images of the stained cells were obtained using a microscope (Zeiss LSM 880 and ELYRA PS.1). To generate ultra-high resolution images, a structured illumination process was performed with ZEN Black software. Pearson r values were calculated by using ImageJ software.
# HeLa cells [4] = experiment: Cristae protecting ability by TEM; assay type: cell-based; conditions: 50 or 100 nM 2 hours, then 0.5 mM H2O2 2 hours
# Source text: In order to determine the mode of action of the peptide according to the disclosure, attenuation of cristae number in mitochondria was examined in relation to impaired mitochondrial function caused by H2O2 treatment. In other words, it was investigated whether promotion of normal mitochondrial function caused by CMP3013 was related to preservation of cristae structure. To evaluate this protective effect, transmission electron microscopy (TEM) images were used to observe changes in the shape and number of cristae in damaged HeLa cells in the presence or absence of CMP3013.
# 1.8×10^6 HeLa cells were fixed with modified Karnovsky fixative [2% paraformaldehyde and 2% glutaraldehyde dissolved in […]] at 4° C. for 3 hours. A sample was washed three times with […] sodium cacodylate buffer (pH 7.2) at 4° C. for 10 minutes, and then post-fixed at 4° C. for 2 hours with 1% osmium tetroxide dissolved in […] sodium cacodylate buffer (pH 7.2). The sample was then washed twice briefly with distilled water. Subsequently, the sample was then en bloc stained with 0.5% uranyl acetate at 4° C. overnight. […]
# SH-SY5Y cells = experiment: ROS production inhibiting ability, comparison of SS-31 and CMP3013; assay type: cell-based; conditions: CCCP, rotenone, antimycin A or H2O2, SS-31 100 nM or 1 μM, CMP3013 10 nM or 100 nM
# Method: To compare effects of the two peptides on restoration of mitochondrial function, SS-31 and CMP3013 were tested for their ROS production inhibiting ability. The relative ROS levels in cells were compared by fluorescence intensity according to the method described in Experimental Example 6. SH-SY5Y cells were treated with four different mitochondrial damaging agents (200 μM CCCP, 50 μM rotenone, 10 μM antimycin A, or 50 μM H2O2) to induce production of ROS by mitochondrial damage.
# The second method was performed as follows. First, 2×10^4 HeLa cells were seeded into a 96-well plate. After 24 hours, the cells were incubated with each peptide for 3 hours, and then staining with H2DCFDA (25 μM, 30 min) was performed. After performing washing twice with PBS, the cells in HBSS were used for analysis of ROS levels. The DCF signal of each well was obtained using a microplate reader (TECAN) at 37° C. (Ex/Em=485/535 nm).
# [5] = Membrane potential restoring ability, JC-1, comparison of SS-31 and CMP3013; assay type: cell-based; conditions: 1 mM H2O2; 10 or 30 nM
# Method: For comparison of efficacy of the two peptides on restoration of mitochondrial function, SS-31 and CMP3013 were tested for their effect on membrane potential. The change in mitochondrial membrane potential was measured as a fluorescence ratio of JC-1 according to the method described in Experimental Example 8, and 1 mM of H2O2 was used as a mitochondrial damaging agent.
smiles,measurement,setting,value
"CC(=O)N[C@@H](CC1CCCCC1)C(=O)N[C@H]1CSSC[C@@H](C(=O)N[C@@H](CCCNC(=N)N)C(N)=O)NC(=O)[C@H](CC2CCCCC2)NC(=O)[C@H](CCCNC(=N)N)NC(=O)[C@H](CCCNC(=N)N)NC(=O)[C@H](CC2CCCCC2)NC(=O)[C@H](CC(C)C)NC(=O)[C@H](CCCNC(=N)N)NC(=O)[C@@H](NC(=O)[C@H](CC2CCCCC2)NC(C)=O)CSSC[C@@H](C(=O)N[C@@H](CCCNC(=N)N)C(N)=O)NC(=O)[C@H](CC2CCCCC2)NC(=O)[C@H](CCCNC(=N)N)NC(=O)[C@H](CCCNC(=N)N)NC(=O)[C@H](CC2CCCCC2)NC(=O)[C@H](CC(C)C)NC(=O)[C@H](CCCNC(=N)N)NC1=O [CMP3013] (HELM PEPTIDE1{[ac].[Cha].C.R.L.[Cha].R.R.[Cha].C.R.[am]}|PEPTIDE2{[ac].[Cha].C.R.L.[Cha].R.R.[Cha].C.R.[am]}$PEPTIDE1,PEPTIDE2,3:R3-10:R3|PEPTIDE1,PEPTIDE2,10:R3-3:R3$$$V2.0)",Oligomerization tendency (RT at 40-5° C.) ΔΔRT,[1],2.683 min
same,mitochondrial/cytoplasmic abundance ratio (M/C ratio),HeLa cells [2],4.1
same,rank of percentage in the mitochondrial fraction,HeLa cells [2]; 3 hours,highest percentage in the mitochondrial fraction
same,targeting of damaged mitochondria,HeLa cells [3],moves into damaged mitochondria; also recorded: preferentially target damaged mitochondria
same,number of cristae structures (TEM),HeLa cells [4],same number of normal cristae structures as in the control group with no treatment
same,ROS production inhibiting ability,SH-SY5Y cells,equivalent or better ROS production inhibiting ability than SS-31
same,"mitochondrial membrane potential (Δψm), JC-1 ratio",[5],increased mitochondrial membrane potential
